Data: patent US7560106B2, “Rationally designed heparinases derived from heparinase I and II and methods of sequencing therewith” (Massachusetts Institute of Technology, priority 1998, dated 2009)

Columns and labels:
[1] = biological target: T1, heparinase II (Pedobacter heparinus, UniProt C6XZB6); assay: 4-VP, NEM, IAA and IAM inactivation of heparinase II; assay type: biochemical, Flavobacterium heparinum
T1 sequence (C6XZB6 26-772): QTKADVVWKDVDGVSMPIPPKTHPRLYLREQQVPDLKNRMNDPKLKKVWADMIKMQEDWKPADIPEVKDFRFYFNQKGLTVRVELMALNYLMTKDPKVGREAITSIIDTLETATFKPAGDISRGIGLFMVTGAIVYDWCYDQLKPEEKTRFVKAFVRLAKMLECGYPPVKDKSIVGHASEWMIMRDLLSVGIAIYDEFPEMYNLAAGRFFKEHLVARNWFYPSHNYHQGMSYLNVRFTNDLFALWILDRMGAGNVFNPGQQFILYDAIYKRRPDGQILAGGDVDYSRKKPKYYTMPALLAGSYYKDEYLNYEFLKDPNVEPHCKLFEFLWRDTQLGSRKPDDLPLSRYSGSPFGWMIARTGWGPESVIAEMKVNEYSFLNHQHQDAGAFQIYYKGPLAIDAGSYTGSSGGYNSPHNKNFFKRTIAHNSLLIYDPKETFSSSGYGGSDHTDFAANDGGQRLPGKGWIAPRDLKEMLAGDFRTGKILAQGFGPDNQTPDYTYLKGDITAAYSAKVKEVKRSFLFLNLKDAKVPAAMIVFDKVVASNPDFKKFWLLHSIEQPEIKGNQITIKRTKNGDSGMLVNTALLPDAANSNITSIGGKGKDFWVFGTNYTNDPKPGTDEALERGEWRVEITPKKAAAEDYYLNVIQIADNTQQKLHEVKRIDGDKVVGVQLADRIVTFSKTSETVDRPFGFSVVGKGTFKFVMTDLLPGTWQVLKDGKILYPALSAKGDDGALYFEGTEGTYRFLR
Protocol: 4-VP, NEM IAA, and AM Inactivation Heparinase II (100 μg/ml) was incubated with varying concentrations of either 4-VP, NEM, IAA or IAM (Lundblad, R. L. (1995) Techniques in Protein Modification. pp. 63-91, CRC Press, Boca Raton). Aqueous stock solutions ([…]) of each reagent was prepared immediately before use. For NEM and 4-VP the concentrations of modifying reagent were varied from 0.2-2 mM. In the case of IAA or IAM, the concentrations of the reagent ranged from 1-10 mM. All reactions were conducted in 50 mM sodium-phosphate buffer, pH 7.0, at room temperature. The time course of inactivation was monitored in each case, time courses for each of the reagents were compared using either heparin or heparan sulfate as the substrate.

[2] = biological target: T1, heparinase II; assay: DTNB modification and inactivation of heparinase II; assay type: biochemical, Flavobacterium heparinum
From the text: Heparinase II Activity Assay. Native heparinase II from Flavobacterium heparinum, was purified as described previously (Godavarti, R., and Sasisekharan, R (1996c) Biochem. Biophys. Res. Comm. 229, 770-777). The UV 232 nm assay to quantify native heparinase II enzymatic activity was similar to that reported for heparinase I (Bernstein, H., Yang, V. C., Cooney, C. L., Langer, R. (1988) Meth. Enzym. 137, 515-29). Briefly, the course of the reaction is monitored by measuring the increase in absorbance at 232 nm as a function of time under saturating substrate concentrations. With heparin as the substrate, the reaction was carried out at a concentration of 4 mg/ml in 50 mM sodium phosphate buffer, pH 7.3. With 2 mg/ml heparan sulfate, the reaction was measured in 50 mM sodium phosphate buffer, pH 6.9 (Sasisekharan, R., Moses, M. A., Nugent, M. A., Cooney, C. L., Langer, R. (1994) Proc. Natl. Acad. Sci., USA 91, 1524-1528). The temperature for all enzymatic activity measurements was kept constant at 35° C.
DTNB Modification Studies. (A) Inactivation with DTNB. Heparinase II (100 μg/ml) was incubated with DTNB (0.1-0.5 mM). A DTNB stock solution was made by dissolving DTNB in ethanol and an aliquot was added to the reaction mixture (Lundblad, R. L. (1995) Techniques in Protein Modification. pp. 63-91, CRC Press, Boca Raton).
(B) Quantification of DTNB—modified residues of heparinase II. Quantification of DTNB-modified heparinase II residues was determined by difference spectra. At time zero, 2 mM DTNB was added to the sample cuvette containing heparinase II (825 μg/ml) in sodium phosphate buffer, pH 7.0. The change in absorbance at 410 nm was monitored every. 30 seconds for 10 minutes. To account for the decomposition of DTNB in the reaction mixture, a control was also done by monitoring the change in absorbance at 410 nm with only DTNB (2 mM) in 50 mM sodium phosphate buffer, pH 7.0. Heparinase II activity assays were also performed on the reaction mixture. The number of heparinase II cysteine residues modified was determined using ∈=13,600 M cm^−1 (Lundblad, R. L. (1995) Techniques in Protein Modification. pp. 63-91, CRC Press, Boca Raton). A similar experiment was completed after preincubating the enzyme with heparin for 30 minutes.

[3] = biological target: T2, heparinase I (Pedobacter heparinus, UniProt Q05819); assay: Effect of lanthanides on heparinase I activity (232 nm assay); assay type: biochemical, Flavobacterium heparinum; conditions: 15 minutes preincubation; 4 mg/mL heparin, 5 mM calcium, pH 6.5
[4] = biological target: T2, heparinase I; assay type: biochemical, Flavobacterium heparinum; conditions: 30 minutes preincubation, 50 μM WRK, pH 7
[5] = biological target: T2, heparinase I; assay type: binding, Flavobacterium heparinum
[6] = Exhaustive digest and HPLC analysis of saccharide products of heparinase II and mutants, heparin substrate; conditions: exhaustive digest 18 hours at 30° C.
Protocol: HPLC Analysis of Saccharide Products of Heparinase II Activity. Heparin or heparan sulfate was degraded by heparinase II or one of the recombinant heparinases for 18 h at 30° C. The reaction was stopped by boiling and the samples were injected onto a POROS Q/M (4.6×100 mm) anion-exchange column connected to a BIOCAD system (PerSeptive Biosystems, Framingham, Mass.) (Godavarti, R., and Sasisekharan, R (1996c) Biochem. Biophys. Res. Comm. 229, 770-777). A salt gradient of 0-2 M NaCI in 10 mM Tris pH 7.0 was run and products were monitored at 232 nm.
Exhaustive digests of both 4 mg/ml heparin and 2 mg/ml heparan sulfate were completed and the resulting products analyzed with a Perfusion Chromatography system in a fashion similar to the analysis completed for heparinase I (Godavarti, R., and Sasisekharan, R (1996c) Biochem. Biophys. Res. Comm. 229, 770-777). Running buffer used as 10 mM Tris, pH 7.0 and the salt gradient was 0-2 M NaCl over the course of ten minutes.
After purification, each of these four wild-type and mutant enzymes was characterized via exhaustive (i.e., 18 hours at 30° C.) substrate digests to determine product profiles. Perfusion chromatography profiles of the desaccharide products of the three cysteine mutants and the r-heparinase II were analyzed using either heparin and heparan sulfate as the substrate.

[7] = absence of calcium; shown previously; cited from earlier work
[8] = Processivity of heparinase I on heparin; assay type: biochemical
[9] = Heparinase I activity as a function of calcium concentration (K0.5, calcium dependence); assay type: biochemical
In short: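 Heparinase I mutant activity was measured by UV absorbance at 232 nm in 100 mM MOPS, pH 7.0, with calcium varied from 0 to 10 mM. Activity is given as IU (μmol product/min) using ε=−3800 M^−1cm^−1.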

[10] = 2 mM DTNB, 10 minutes, enzyme preincubated with heparin
[11] = 2 mM DTNB, 10 minutes, without heparin preincubation

## C=Cc1ccncc1 [4-VP, 4-vinylpyridine]
[1]
  inhibition of heparinase II activity, in words: inhibited heparinase II activity in a dose-dependent fashion

## O=C(O)c1cc(SSc2ccc([N+](=O)[O-])c(C(=O)O)c2)ccc1[N+](=O)[O-] [DTNB, 5,5′-dithiobis-(2-nitrobenzoic acid)]
[2]; [10]
  loss of activity: 25%
  number of cysteines modified: 1.3 cysteines
[2]; [11]
  loss of initial activity: 80%
  number of cysteines modified: 2.4 cysteines
[2]; DTNB 0-0.5 mM, read-out: second-order rate constant of inactivation (converted)
  kinact/KI: 10.2 M⁻¹ s⁻¹

## O=C(O)CI [IAA, iodoacetic acid]
[1]
  inhibition of heparinase II activity, in words: least effective

## [Lu+3] [Lu^3+, lutetium]
[3]
  IC50: 212 µM

## CCN1C(=O)C=CC1=O [NEM, N-ethylmaleimide]
[1]
  inhibition of heparinase II activity, in words: inhibited heparinase II activity in a dose-dependent fashion

## [Ca+2] [calcium]
[4]
  K0.5 of protection from WRK-mediated inactivation: 980 µM
[5]
  calcium concentration sufficient to compete with terbium for binding to heparinase I: 2 mM

## [Tb+3] [terbium]
[5]
  terbium equivalents at which fluorescence intensity stops increasing: 10 equivalents
[3]
  IC50: 39 µM

B1: C189A: heparinase II cysteine to alanine mutant at position 189 (protein, UniProt C6XZB6 26-772, looked up, variant C189A)
Heparin and heparin-sulfate …: QTKADVVWKDVDGVSMPIPPKTHPRLYLREQQVPDLKNRMNDPKLKKVWADMIKMQEDWKPADIPEVKDFRFYFNQKGLTVRVELMALNYLMTKDPKVGREAITSIIDTLETATFKPAGDISRGIGLFMVTGAIVYDWCYDQLKPEEKTRFVKAFVRLAKMLEAGYPPVKDKSIVGHASEWMIMRDLLSVGIAIYDEFPEMYNLAAGRFFKEHLVARNWFYPSHNYHQGMSYLNVRFTNDLFALWILDRMGAGNVFNPGQQFILYDAIYKRRPDGQILAGGDVDYSRKKPKYYTMPALLAGSYYKDEYLNYEFLKDPNVEPHCKLFEFLWRDTQLGSRKPDDLPLSRYSGSPFGWMIARTGWGPESVIAEMKVNEYSFLNHQHQDAGAFQIYYKGPLAIDAGSYTGSSGGYNSPHNKNFFKRTIAHNSLLIYDPKETFSSSGYGGSDHTDFAANDGGQRLPGKGWIAPRDLKEMLAGDFRTGKILAQGFGPDNQTPDYTYLKGDITAAYSAKVKEVKRSFLFLNLKDAKVPAAMIVFDKVVASNPDFKKFWLLHSIEQPEIKGNQITIKRTKNGDSGMLVNTALLPDAANSNITSIGGKGKDFWVFGTNYTNDPKPGTDEALERGEWRVEITPKKAAAEDYYLNVIQIADNTQQKLHEVKRIDGDKVVGVQLADRIVTFSKTSETVDRPFGFSVVGKGTFKFVMTDLLPGTWQVLKDGKILYPALSAKGDDGALYFEGTEGTYRFLR
[6]
  degradation product profile, heparin substrate: closely matched those of both r-heparinase II and native heparinase II

B2: C348A: heparinase II cysteine to alanine mutant at position 348 (protein, UniProt C6XZB6 26-772, looked up, variant C348A)
Heparin and heparin-sulfate …: QTKADVVWKDVDGVSMPIPPKTHPRLYLREQQVPDLKNRMNDPKLKKVWADMIKMQEDWKPADIPEVKDFRFYFNQKGLTVRVELMALNYLMTKDPKVGREAITSIIDTLETATFKPAGDISRGIGLFMVTGAIVYDWCYDQLKPEEKTRFVKAFVRLAKMLECGYPPVKDKSIVGHASEWMIMRDLLSVGIAIYDEFPEMYNLAAGRFFKEHLVARNWFYPSHNYHQGMSYLNVRFTNDLFALWILDRMGAGNVFNPGQQFILYDAIYKRRPDGQILAGGDVDYSRKKPKYYTMPALLAGSYYKDEYLNYEFLKDPNVEPHAKLFEFLWRDTQLGSRKPDDLPLSRYSGSPFGWMIARTGWGPESVIAEMKVNEYSFLNHQHQDAGAFQIYYKGPLAIDAGSYTGSSGGYNSPHNKNFFKRTIAHNSLLIYDPKETFSSSGYGGSDHTDFAANDGGQRLPGKGWIAPRDLKEMLAGDFRTGKILAQGFGPDNQTPDYTYLKGDITAAYSAKVKEVKRSFLFLNLKDAKVPAAMIVFDKVVASNPDFKKFWLLHSIEQPEIKGNQITIKRTKNGDSGMLVNTALLPDAANSNITSIGGKGKDFWVFGTNYTNDPKPGTDEALERGEWRVEITPKKAAAEDYYLNVIQIADNTQQKLHEVKRIDGDKVVGVQLADRIVTFSKTSETVDRPFGFSVVGKGTFKFVMTDLLPGTWQVLKDGKILYPALSAKGDDGALYFEGTEGTYRFLR
modifications: heparinase II
[6]
  degradation product profile, heparin substrate: completely inactive

B3: heparinase I: 42,500 Da enzyme from the periplasm of F. heparinum that degrades heparin-like glycosaminoglycans (protein, listed as Flavobacterium heparinum)
chain: MKKQILYLIVLQQLFLCSAYAQQKKSGNIPYRVNVQADSAKQKAIIDNKWVAVGINKPYALQYDDKLRFNGKPSYRFELKAEDNSLEGYAAGETKGRTELSYSYATTNDFKKFPPSVYQNAQKLKTVYHYGKGICEQGSSRSYTFSVYIPSSFPDNATTIFAQWHGAPSRTLVATPEGEIKTLSIEEFLALYDRMIFKKNIAHDKVEKKDKDGKITYVAGKPNGWKVEQGGYPTLAFGFSKGYFYIKANSDRQWLTDKADRNNANPENSEVMKPYSSEYKTSTIAYKMPFAQFPKDCWITFDVAIDWTKYGKEANTILKPGKLDVMMTYTKNKKPQKAHIVNQQEILIGRNDDDGYYFKFGIYRVGNSTVPVTYNLSGYSETAR
[7]
  salt concentration of elution from heparin-POROS column: around 500 mM
[8]
  processivity: ~90%
[9]
  activity in 2 mm Ca++ relative to absence of calcium: ~10 ×
  increase in activity upon introduction of millimolar concentrations of calcium: five-fold increase in activity
